{"source": "patent US11992479B2", "about": "“R-fadrozole for use in the treatment of aldostonerism” (priority 2018, dated 2024)", "key": {"[1]": {"system": "11β-deoxycorticosterone (DOC)", "details": "once daily DP13, 4-16 mg", "from_the_text": "The diet consisted of 70-80 mEq/day of sodium and 80-90 mEq/day of potassium. Blood samples were obtained daily at the time points indicated in the accompanying Tables for measurements of aldosterone, 11β-deoxycorticosterone (DOC), and potassium (K^+). All of the blood samples were obtained while the subjects were seated in a resting state.\nDOC was quantified by an LC-MS/MS methodology. In preparation the steroids were extracted using the Absolute/DQStereo17 Kit from Biocrates Life Sciences AG, Innsbruck, Austria. The steroids were extracted and subjected to LC-MS/MS analysis according to the manufacturer's instructions. The triple quadrupole mass spectrometer (Waters 1-Class 2D UPLC Xevo TQ-S was calibrated using the standards provided in the kit. The assays were performed as provided by the manufacturers."}, "[2]": {"system": "ACTH-stimulated aldosterone", "details": "for Plasma aldosterone, Difference Post-ACTH vs Pre-ACTH: Day 1"}, "[3]": {"details": "for AUC0-tau: geometric mean ± geometric CV %", "experimental": "There were 6 subjects treated with each dose and twelve subjects treated with placebo (two placebo-treated-subjects included with each dose group).\nThe blood samples were collected in K2EDTA, centrifuged and the plasma stored at −80° C. The samples were prepared for analysis by liquid/liquid extraction as follows. A 50 μL aliquot was extracted with 25 μL of methanol:water (50:50) and mixed; following which 250 μL of ammonia acetate 100 mM:ammonia hydroxide (95:5) was added and the solution was mixed. 750 μL of ethyl acetate was then added and mixed by aspirating and centrifuged at approximately 2500×g for 5 min. 400 μL of the organic layer was collected and evaporated under nitrogen at 40° C. The dried sample was reconstituted in 200 μL of ammonia acetate 10 mM:methanol:ammonia hydroxide (70:30:0.35) and centrifuged at 2000×g for 5 min. at room temperature. The extracted sample was then subjected to liquid chromatography using a Waters, Acquity, UPLC with a Gemini 3 μm NX-C18, 5×2 mm column. An injection volume of 8 μL was analyzed using Mobil phase A consisting of ammonium acetate 10 mM:ammonium hydroxide (100:0.5) and Mobile phase B consisting of methanol. The purified sample was then analyzed by mass spectrometry (LC-MS/MS). […] The effective calibration range was 0.2 to 200 ng/ml."}}, "note": "Where two headings read alike, the source gives them in different places. Marks after values point to notes of the source that are not given here."}
{"smiles": "N#Cc1ccc([C@H]2CCCc3cncn32)cc1.O=P(O)(O)O", "note": "[DP13, (R)-(+)-5-(p-cyanophenyl)-5,6,7,8-tetrahydroimidazolium[1,5-a]pyridine dihydrogen phosphate]", "values": [{"measurement": "highest individual DOC value", "setting": "[1]", "result": 1.92, "unit": "ng/mL"}, {"measurement": "highest mean increase in DOC", "setting": "[1]", "result": 0.52, "unit": "ng/mL"}, {"measurement": "Plasma levels of Aldosterone, Pre-ACTH", "setting": "[2]; 4 mg once daily, Day 7, 09:30 h ([…] post-dose), mean ± SEM", "result": "203.5 ± 26.7", "unit": "pmol/L"}, {"measurement": "Plasma levels of Aldosterone, Post-ACTH", "setting": "[2]; 4 mg once daily, Day 7, 11:00 h, ACTH i.v. at 10:00 h, mean ± SEM", "result": "181.1 ± 14.3^b pmol/L"}, {"measurement": "Plasma levels of Aldosterone, Pre-ACTH", "setting": "[2]; 8 mg once daily, Day 7, 09:30 h, mean ± SEM", "result": "121.0 ± 14.0", "unit": "pmol/L"}, {"measurement": "Plasma levels of Aldosterone, Post-ACTH", "setting": "[2]; 8 mg once daily, Day 7, 11:00 h, mean ± SEM", "result": "115.5 ± 10.6^b pmol/L"}, {"measurement": "Plasma levels of Aldosterone, Pre-ACTH", "setting": "[2]; 16 mg once daily, Day 7, 09:30 h, mean ± SEM", "result": "102.2 ± 13.4", "unit": "pmol/L"}, {"measurement": "Plasma levels of Aldosterone, Post-ACTH", "setting": "[2]; 16 mg once daily, Day 7, 11:00 h, mean ± SEM", "result": "103.4 ± 11.1^b pmol/L"}, {"measurement": "effect on aldosterone increase elicited by ACTH", "setting": "[2]; 4, 8, or 16 mg once daily oral, day 7", "result": "able to prevent the 2- to 3-fold increases in aldosterone elicited by ACTH"}, {"measurement": "Plasma aldosterone, Difference Post-ACTH vs Pre-ACTH", "setting": "[2]; single dose 1 mg", "result": "(−6) pmol/L"}, {"measurement": "Plasma levels of Aldosterone, Pre-ACTH", "setting": "[2]; single dose 1 mg, Day 1, 09:30 h, mean ± SD, N = six", "result": "99 ± 13", "unit": "pmol/L"}, {"measurement": "Plasma levels of Aldosterone, Post-ACTH", "setting": "[2]; single dose 1 mg, Day 1, 11:00 h, mean ± SD, N = six", "result": "94 ± 6^a pmol/L"}, {"measurement": "Plasma aldosterone, Difference Post-ACTH vs Pre-ACTH", "setting": "[2]; single dose 2 mg", "result": "(−12) pmol/L"}, {"measurement": "Plasma levels of Aldosterone, Pre-ACTH", "setting": "[2]; single dose 2 mg, Day 1, 09:30 h, mean ± SD, N = six", "result": "132 ± 22", "unit": "pmol/L"}, {"measurement": "Plasma levels of Aldosterone, Post-ACTH", "setting": "[2]; single dose 2 mg, Day 1, 11:00 h, mean ± SD, N = six", "result": "120 ± 20^a pmol/L"}, {"measurement": "AUC0-t", "setting": "[3]; 1 mg single oral dose, Day 1", "result": "45.8 ± 4.16", "unit": "ng·h/mL"}, {"measurement": "Cmax", "setting": "[3]; 1 mg single oral dose, Day 1", "result": "4.68 ± 0.38", "unit": "ng/mL"}, {"measurement": "T1/2", "setting": "[3]; 1 mg single oral dose, Day 1", "result": "8.19 ± 0.43", "unit": "h"}, {"measurement": "Tmax", "setting": "[3]; 1 mg single oral dose, Day 1", "result": "2.00 ± 0.49", "unit": "h"}, {"measurement": "AUC0-t", "setting": "[3]; 2 mg single oral dose, Day 1", "result": "133 ± 27.41", "unit": "ng·h/mL"}, {"measurement": "Cmax", "setting": "[3]; 2 mg single oral dose, Day 1", "result": "12.0 ± 1.71", "unit": "ng/mL"}, {"measurement": "T1/2", "setting": "[3]; 2 mg single oral dose, Day 1", "result": "11.3 ± 1.28", "unit": "h"}, {"measurement": "Tmax", "setting": "[3]; 2 mg single oral dose, Day 1", "result": "2.08 ± 0.36", "unit": "h"}, {"measurement": "AUC0-t", "setting": "[3]; 4 mg once daily oral, Day 1", "result": "139 ± 15.0", "unit": "ng·h/mL"}, {"measurement": "AUC0-∞", "setting": "[3]; 4 mg once daily oral, Day 1", "result": "167 ± 22.0", "unit": "ng·h/mL"}, {"measurement": "Cmax", "setting": "[3]; 4 mg once daily oral, Day 1", "result": "14.0 ± 1.6", "unit": "ng/mL"}, {"measurement": "T1/2", "setting": "[3]; 4 mg once daily oral, Day 1", "result": 8.47, "unit": "h"}, {"measurement": "Tmax", "setting": "[3]; 4 mg once daily oral, Day 1", "result": "2.08 ± 0.28", "unit": "h"}, {"measurement": "AUC0-t", "setting": "[3]; 4 mg once daily oral, Day 8", "result": "154 ± 20.5", "unit": "ng·h/mL"}, {"measurement": "AUC0-∞", "setting": "[3]; 4 mg once daily oral, Day 8", "result": "154 ± 20.5", "unit": "ng·h/mL"}, {"measurement": "Cmax", "setting": "[3]; 4 mg once daily oral, Day 8", "result": "15.1 ± 1.1", "unit": "ng/mL"}, {"measurement": "T1/2", "setting": "[3]; 4 mg once daily oral, Day 8", "result": "8.58 ± 1.1", "unit": "h"}, {"measurement": "Tmax", "setting": "[3]; 4 mg once daily oral, Day 8", "result": "1.92 ± 0.35", "unit": "h"}, {"measurement": "AUC0-tau", "setting": "[3]; 4 mg, Day 1", "result": "134 ± 29.2", "unit": "ng·h/mL"}, {"measurement": "AUC0-tau", "setting": "[3]; 4 mg, Day 8", "result": "148 ± 33.0", "unit": "ng·h/mL"}, {"measurement": "AUC0-t", "setting": "[3]; 8 mg once daily oral, Day 1", "result": "281 ± 24.2", "unit": "ng·h/mL"}, {"measurement": "AUC0-∞", "setting": "[3]; 8 mg once daily oral, Day 1", "result": "335 ± 31.5", "unit": "ng·h/mL"}, {"measurement": "Cmax", "setting": "[3]; 8 mg once daily oral, Day 1", "result": "29.4 ± 2.5", "unit": "ng/mL"}, {"measurement": "T1/2", "setting": "[3]; 8 mg once daily oral, Day 1", "result": "8.82 ± 0.4", "unit": "h"}, {"measurement": "Tmax", "setting": "[3]; 8 mg once daily oral, Day 1", "result": "1.81 ± 0.25", "unit": "h"}, {"measurement": "AUC0-t", "setting": "[3]; 8 mg once daily oral, Day 8", "result": "338 ± 28.5", "unit": "ng·h/mL"}, {"measurement": "AUC0-∞", "setting": "[3]; 8 mg once daily oral, Day 8", "result": "338 ± 28.5", "unit": "ng·h/mL"}, {"measurement": "Cmax", "setting": "[3]; 8 mg once daily oral, Day 8", "result": "37.9 ± 3.9", "unit": "ng/mL"}, {"measurement": "T1/2", "setting": "[3]; 8 mg once daily oral, Day 8", "result": "8.92 ± 0.5", "unit": "h"}, {"measurement": "Tmax", "setting": "[3]; 8 mg once daily oral, Day 8", "result": "1.56 ± 0.26", "unit": "h"}, {"measurement": "AUC0-tau", "setting": "[3]; 8 mg, Day 1", "result": "274 ± 24.9", "unit": "ng·h/mL"}, {"measurement": "AUC0-tau", "setting": "[3]; 8 mg, Day 8", "result": "331 ± 22.5", "unit": "ng·h/mL"}, {"measurement": "AUC0-t", "setting": "[3]; 16 mg once daily oral, Day 1", "result": "610 ± 34.7", "unit": "ng·h/mL"}, {"measurement": "AUC0-∞", "setting": "[3]; 16 mg once daily oral, Day 1", "result": "740 ± 65.8", "unit": "ng·h/mL"}, {"measurement": "Cmax", "setting": "[3]; 16 mg once daily oral, Day 1", "result": "66.8 ± 6.1", "unit": "ng/mL"}, {"measurement": "T1/2", "setting": "[3]; 16 mg once daily oral, Day 1", "result": "9.04 ± 0.8", "unit": "h"}, {"measurement": "Tmax", "setting": "[3]; 16 mg once daily oral, Day 1", "result": "1.88 ± 0.41", "unit": "h"}, {"measurement": "AUC0-t", "setting": "[3]; 16 mg once daily oral, Day 8", "result": "725 ± 51.4", "unit": "ng·h/mL"}, {"measurement": "AUC0-∞", "setting": "[3]; 16 mg once daily oral, Day 8", "result": "725 ± 51.4", "unit": "ng·h/mL"}, {"measurement": "Cmax", "setting": "[3]; 16 mg once daily oral, Day 8", "result": "77.4 ± 6.9", "unit": "ng/mL"}, {"measurement": "T1/2", "setting": "[3]; 16 mg once daily oral, Day 8", "result": 9.67, "unit": "h"}, {"measurement": "Tmax", "setting": "[3]; 16 mg once daily oral, Day 8", "result": "1.88 ± 0.40", "unit": "h"}, {"measurement": "AUC0-tau", "setting": "[3]; 16 mg, Day 1", "result": "603 ± 15.8", "unit": "ng·h/mL"}, {"measurement": "AUC0-tau", "setting": "[3]; 16 mg, Day 8", "result": "714 ± 19.1", "unit": "ng·h/mL"}, {"measurement": "absorption (Tmax)", "setting": "[3]; all dose levels", "result": "absorbed rapidly at all dose levels"}, {"measurement": "dose proportionality of Cmax and AUC0-∞", "setting": "[3]; all dose levels", "result": "dose-proportional"}]}
